Experiments:
human DGAT1 = target: T1, human DGAT1 (Homo sapiens, UniProt O75907); assay: DGAT Scintillation Proximity Assay (SPA) with membranes of insect cells expressing human flagtag DGAT1; assay type: biochemical; settings: read-out: hDGAT1 IC50
T1 construct: made in house; host or cells: insect cells (sf9, sf21 or High Five) infected with baculovirus; total cell membranes
T1 sequence (O75907 1-488): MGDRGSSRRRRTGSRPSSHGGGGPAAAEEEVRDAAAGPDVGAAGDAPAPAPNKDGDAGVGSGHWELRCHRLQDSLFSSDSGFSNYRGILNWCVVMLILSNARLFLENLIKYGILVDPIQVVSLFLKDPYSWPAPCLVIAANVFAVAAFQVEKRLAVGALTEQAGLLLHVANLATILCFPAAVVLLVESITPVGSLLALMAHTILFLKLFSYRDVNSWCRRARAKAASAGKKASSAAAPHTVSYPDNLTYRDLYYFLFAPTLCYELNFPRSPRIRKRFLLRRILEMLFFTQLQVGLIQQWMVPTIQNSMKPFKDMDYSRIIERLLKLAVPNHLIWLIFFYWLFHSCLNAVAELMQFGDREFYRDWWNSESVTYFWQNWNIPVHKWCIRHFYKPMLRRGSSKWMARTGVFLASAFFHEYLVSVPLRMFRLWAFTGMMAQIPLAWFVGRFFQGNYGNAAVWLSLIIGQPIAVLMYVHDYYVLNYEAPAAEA
In short: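 Membranes (0.2 μg/well) from insect cells expressing human flag-tagged DGAT1 incubated with 10 μM compound and 200 μM dioleoyl glycerol substrate; mercuric chloride as inhibition control. Reaction stopped with WGA SPA beads in mercuric chloride, overnight bead coupling, then scintillation proximity signal read.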

Structure (SMILES)	melting point	IC50 (human DGAT1) [nM]
Cc1nc(N)c2c(n1)OC(C)(C)C(c1ccc([C@H]3CC[C@H](CNC(=O)C(C)(C)O)CC3)c(Cl)c1)=N2 [Example 6-18]	> 250 °C	10 to 100
CC1(C)Oc2nc(C(F)(F)F)nc(N)c2N=C1c1ccc([C@H]2CC[C@H](CC(=O)O)CC2)c(Cl)c1 [Example 6-20]	247 to 248 °C	< 10
CC1(C)Oc2nc(C(F)(F)F)nc(N)c2N=C1c1ccc([C@H]2CC[C@H](CNC(N)=O)CC2)c(Cl)c1 [Example 6-22]	147 °C (dec.)	10 to 100
Cc1nc(N)c2c(n1)OC(C)(C)C(c1ccc([C@H]3CC[C@H](CNC(N)=O)CC3)c(Cl)c1)=N2 [Example 6-23]	160 to 166 °C	10 to 100
CC1(C)Oc2nc(C(F)(F)F)nc(N)c2N=C1c1ccc([C@H]2CC[C@H](CNC(=O)CO)CC2)c(Cl)c1 [Example 6-24]	213 to 216 °C	10 to 100
CC1(C)Oc2nc(C(F)(F)F)nc(N)c2N=C1c1ccc([C@H]2CC[C@H](Cc3nc(=O)o[nH]3)CC2)c(Cl)c1 [Example 6-25]	236 to 237 °C	10 to 100

Results, then the compound that gave them:

melting point	IC50 (human DGAT1) [nM]	Structure (SMILES)
> 250 °C	> 100	Cc1nc(N)c2c(n1)OC(C)(C)C(c1ccc([C@H]3CC[C@H](CN4CCOC4=O)CC3)c(Cl)c1)=N2 [Example 6-17]
225 to 226 °C	10 to 100	Cc1nc(N)c2c(n1)OC(C)(C)C(c1ccc([C@H]3CC[C@H](CN4CCCC(O)C4=O)CC3)c(Cl)c1)=N2 (some centres unmarked) [Example 6-19]
> 250 °C	10 to 100	CC1(C)Oc2nc(C(F)(F)F)nc(N)c2N=C1c1ccc([C@H]2CC[C@H](CN3CCOC3=O)CC2)c(Cl)c1 [Example 6-21]
> 230 °C	< 10	Cc1nc(N)c2c(n1)OC(C)(C)C(c1ccc([C@H]3CC[C@H](CC(=O)O)CC3)c(Cl)c1)=N2 [Example 6]

Source: patent US7244727B2, “Fused bicyclic nitrogen-containing heterocycles” (Japan Tobacco Inc., priority 2002, dated 2007)
